PubChem BioAssay AID1259411 (Chemical Carcinogenesis Research Information System (CCRIS), 2018)
Active and inactive are the calls of the source. How the calls were made is not given here.

Test system: rodent carcinogenicity bioassays, tumor incidence
Experiment: CCRIS carcinogenicity studies
In short: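 Archive of carcinogenicity, mutagenicity, tumor promotion and tumor inhibition results drawn from journals, NCI reports and other sources, expert-reviewed; covers 1985-2011 and is no longer updated.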

For `C/C=C/C=C/C=O`, the carcinogen call (Species: MOUSE, Strain/Sex: B6C3F1/FEMALE, Route: GAVAGE, Dose: 0, 30, 60, 120 MG/KG IN CORN OIL 5 D/WK FOR DURATION OF STUDY (STUDY DURATION: 105 WK), Dose: 0, 30, 60, 120 MG/KG IN CORN OIL 5 D/WK FOR DURATION OF STUDY (STUDY DURATION: 105 WK), Tumor Site: Type of Lesion: FORESTOMACH: SQUAMOUS CELL PAPILLOMA, SQUAMOUS CELL CARCINOMA, SQUAMOUS CELL PAPILLOMA OR CARCINOMA) was “active; positive”, the carcinogen call (Species: MOUSE, Strain/Sex: B6C3F1/MALE, Route: GAVAGE, Dose: 0, 30, 60, 120 MG/KG IN CORN OIL 5 D/WK FOR DURATION OF STUDY (STUDY DURATION: 105 WK), Dose: 0, 30, 60, 120 MG/KG IN CORN OIL 5 D/WK FOR DURATION OF STUDY (STUDY DURATION: 105 WK), Tumor Site: Type of Lesion: FORESTOMACH: SQUAMOUS CELL PAPILLOMA, SQUAMOUS CELL CARCINOMA, SQUAMOUS CELL PAPILLOMA OR CARCINOMA) was “active; positive” and the carcinogen call (Species: RAT, Strain/Sex: F344/FEMALE, Route: GAVAGE, Dose: 0, 22.5, 45, 90 MG/KG IN CORN OIL 5 D/WK FOR DURATION OF STUDY (STUDY DURATION: 105 WK), Dose: 0, 22.5, 45, 90 MG/KG IN CORN OIL 5 D/WK FOR DURATION OF STUDY (STUDY DURATION: 105 WK), Tumor Site: Type of Lesion: FORESTOMACH: SQUAMOUS CELL PAPILLOMA) was “active; positive”. The carcinogen call (Species: RAT, Strain/Sex: F344/MALE, Route: GAVAGE, Dose: 0, 22.5, 45, 90 MG/KG IN CORN OIL 5 D/WK FOR DURATION OF STUDY (STUDY DURATION: 105 WK), Dose: 0, 22.5, 45, 90 MG/KG IN CORN OIL 5 D/WK FOR DURATION OF STUDY (STUDY DURATION: 105 WK), Tumor Site: Type of Lesion: FORESTOMACH: SQUAMOUS CELL PAPILLOMA, SQUAMOUS CELL CARCINOMA, SQUAMOUS CELL PAPILLOMA OR CARCINOMA) was “active; positive”.
`Cc1ccc2ncccc2c1` was tested, and the carcinogen call (Species: RAT, Strain/Sex: F344/MALE,FEMALE, Route: ORAL, Dose: 0.05% IN DIET FOR 2 YR) was “inactive; negative”.
`COP(=O)(OC)OC(=CCl)c1cc(Cl)c(Cl)cc1Cl` was tested, and the carcinogen call (Species: MOUSE, Strain/Sex: B6C3F1/MALE, Route: ORAL, Dose: 0, 8000, 16000 PPM IN DIET, Dose: 0, 8000, 16000 PPM IN DIET, Tumor Site: Type of Lesion: LIVER: NEOPLASTIC NODULE OR HEPATOCELLULAR CARCINOMA) was “active; positive” and the carcinogen call (Species: RAT, Strain/Sex: OSBORNE-MENDEL/MALE, Route: ORAL, Dose: 0, 4250, 8500 PPM IN DIET, TWA, Dose: 0, 4250, 8500 PPM IN DIET, TWA) was “inactive; negative”.
With `O[C@H]1C=Cc2c(cc3ccc4cccc5ccc2c3c45)[C@@H]1O` the carcinogen call (Species: FISH, Strain/Sex: RAINBOW TROUT/MALE,FEMALE, Route: INJECTION, Dose: 0, 0.01, 1 UG INJECTED INTO NEWLY HATCHED SAC-FRY ONCE (STUDY DURATION: 9 MO), Dose: 0, 0.01, 1 UG INJECTED INTO NEWLY HATCHED SAC-FRY ONCE (STUDY DURATION: 9 MO), Tumor Site: Type of Lesion: LIVER: TUMOR) was “active; positive”, the carcinogen call (Species: FISH, Strain/Sex: RAINBOW TROUT/MALE,FEMALE, Route: INJECTION, Dose: 0, 0.5, 2, 5 UG INJECTED INTO NEWLY HATCHED SAC-FRY (STUDY DURATION: 9 MO), Dose: 0, 0.5, 2, 5 UG INJECTED INTO NEWLY HATCHED SAC-FRY (STUDY DURATION: 9 MO), Tumor Site: Type of Lesion: LIVER: TUMOR) was “active; positive” and the carcinogen call (Species: MOUSE, Strain/Sex: C57BL/FEMALE, Route: DERMAL, Dose: 0.15, 0.30 UMOL IN ACETONE/NH4OH (1000:1) EVERY 2 WK FOR 60 WK, Tumor Site: Type of Lesion: INTEGUMENTARY SYSTEM (SKIN): SQUAMOUS CELL CARCINOMA) was “active; positive”. For the same compound, the carcinogen call (Species: MOUSE, Strain/Sex: SWISS/MALE,FEMALE, Route: INTRAPERITONEAL, Dose: 200 NMOL ON FIRST D OF LIFE, 400 NMOL ON D 8, 800 NMOL ON D 15, Tumor Site: Type of Lesion: LUNG: ADENOMA, HEMATOPOIETIC SYSTEM (LEUKEMIA), LYMPHATIC SYSTEM: MALIGNANT LYMPHOMA, Tumor Site: Type of Lesion: LUNG: ADENOMA, HEMATOPOIETIC SYSTEM (LEUKEMIA), LYMPHATIC SYSTEM: MALIGNANT LYMPHOMA) was “active; positive”.
For `CCOC(=O)Nc1cccc(OC(=O)Nc2ccccc2)c1`, the carcinogen call (Species: Mouse, Strain/Sex: NMRI/Female (50/Group), Route: Oral, Dose: 0, 30, 150, 750 ppm in diet for 104 wk, Dose: 0, 30, 150, 750 ppm in diet for 104 wk) was “inactive; negative”, the carcinogen call (Species: Mouse, Strain/Sex: NMRI/Male (50/Group), Route: Oral, Dose: 0, 30, 150, 750 ppm in diet for 104 wk, Dose: 0, 30, 150, 750 ppm in diet for 104 wk) was “inactive; negative” and the carcinogen call (Species: Rat, Strain/Sex: Wistar KFM-Han/Female (50/Group), Route: Oral, Dose: 0, 60, 300, 1500 ppm in diet for 2 yr, Dose: 0, 60, 300, 1500 ppm in diet for 2 yr) was “inactive; negative”. The carcinogen call (Species: Rat, Strain/Sex: Wistar KFM-Han/Male (50/Group), Route: Oral, Dose: 0, 60, 300, 1500 ppm in diet for 2 yr, Dose: 0, 60, 300, 1500 ppm in diet for 2 yr) was “inactive; negative”.
For `CN1C(=O)C[C@@H](C(=O)N[C@@H](Cc2cnc[nH]2)C(=O)N2CCC[C@H]2C(N)=O)NC1=O`, the carcinogen call (Species: MOUSE, Strain/Sex: CD-1/FEMALE, Route: GAVAGE, Dose: 0, 5, 15, 50 MG/KG 1/D 7 D/WK FOR 104 WK (STUDY DURATION: 104 WK), Dose: 0, 5, 15, 50 MG/KG 1/D 7 D/WK FOR 104 WK (STUDY DURATION: 104 WK)) was “inactive; negative”, the carcinogen call (Species: MOUSE, Strain/Sex: CD-1/MALE, Route: GAVAGE, Dose: 0, 5, 15, 50 MG/KG 1/D 7 D/WK FOR 104 WK (STUDY DURATION: 104 WK), Dose: 0, 5, 15, 50 MG/KG 1/D 7 D/WK FOR 104 WK (STUDY DURATION: 104 WK)) was “inactive; negative” and the carcinogen call (Species: RAT, Strain/Sex: STRAIN-CD/FEMALE, Route: GAVAGE, Dose: 0, 20, 60, 200 MG/KG 1/D 7 D/WK FOR 94 WK (STUDY DURATION: 94 WK), Dose: 0, 20, 60, 200 MG/KG 1/D 7 D/WK FOR 94 WK (STUDY DURATION: 94 WK)) was “inactive; negative”. For the same compound, the carcinogen call (Species: RAT, Strain/Sex: STRAIN-CD/MALE, Route: GAVAGE, Dose: 0, 20, 60, 200 MG/KG 1/D 7 D/WK FOR 90 WK (STUDY DURATION: 90 WK), Dose: 0, 20, 60, 200 MG/KG 1/D 7 D/WK FOR 90 WK (STUDY DURATION: 90 WK)) was “inactive; negative”.
For `C[C@]12C=CC(=O)C=C1CC[C@@H]1[C@@H]2C(=O)C[C@@]2(C)[C@H]1CC[C@]2(O)C(=O)CO`, the carcinogen call (Species: MOUSE, Strain/Sex: ICR/FEMALE, Route: ORAL, Dose: 0, 0.25, 0.5, 1, 5 MG/KG/D FOR 18 MO (STUDY DURATION: 18 MO), Dose: 0, 0.25, 0.5, 1, 5 MG/KG/D FOR 18 MO (STUDY DURATION: 18 MO)) was “inactive; negative” and the carcinogen call (Species: MOUSE, Strain/Sex: ICR/MALE, Route: ORAL, Dose: 0, 0.25, 0.5, 1, 5 MG/KG/D FOR 18 MO (STUDY DURATION: 18 MO), Dose: 0, 0.25, 0.5, 1, 5 MG/KG/D FOR 18 MO (STUDY DURATION: 18 MO)) was “inactive; negative”.
In the case of `C=CCN(N=O)C(N)=O`, the carcinogen call (Species: RAT, Strain/Sex: F344/FEMALE, Route: GAVAGE, Dose: 0, 13 MG/ML (TOTAL DOSE 0; 1.2 MMOL) IN 2 ML ETHYL ACETATE AND CORN OIL (1:2) 2/WK FOR 30 WK (STUDY DURATION: LIFETIME), Dose: 0, 13 MG/ML (TOTAL DOSE 0; 1.2 MMOL) IN 2 ML ETHYL ACETATE AND CORN OIL (1:2) 2/WK FOR 30 WK (STUDY DURATION: LIFETIME), Tumor Site: Type of Lesion: FORESTOMACH: SQUAMOUS CELL CARCINOMA, MAMMARY GLAND: TUMOR) is reported as “active; positive”, the carcinogen call (Species: RAT, Strain/Sex: F344/FEMALE, Route: GAVAGE, Dose: 0, 13 MG/ML IN 0.2 ML ETHYL ACETATE AND CORN OIL 2/WK FOR 30 WK (STUDY DURATION: LIFESPAN), Tumor Site: Type of Lesion: FORESTOMACH: TUMOR, MAMMARY GLAND: TUMOR) is reported as “active; positive” and the carcinogen call (Species: RAT, Strain/Sex: F344/MALE, Route: GAVAGE, Dose: 0, 13 MG/ML (TOTAL DOSE 0; 1.2 MMOL) IN 2 ML ETHYL ACETATE AND CORN OIL (1:2) 2/WK FOR 30 WK (STUDY DURATION: LIFETIME), Dose: 0, 13 MG/ML (TOTAL DOSE 0; 1.2 MMOL) IN 2 ML ETHYL ACETATE AND CORN OIL (1:2) 2/WK FOR 30 WK (STUDY DURATION: LIFETIME), Tumor Site: Type of Lesion: FORESTOMACH: SQUAMOUS CELL CARCINOMA, LUNG: TUMOR, COLON: TUMOR, ZYMBAL GLAND: TUMOR, Tumor Site: Type of Lesion: FORESTOMACH: SQUAMOUS CELL CARCINOMA, LUNG: TUMOR, COLON: TUMOR, ZYMBAL GLAND: TUMOR) is reported as “active; positive”. For the same compound, the carcinogen call (Species: RAT, Strain/Sex: F344/MALE, Route: GAVAGE, Dose: 0, 13 MG/ML IN 0.2 ML ETHYL ACETATE AND CORN OIL 2/WK FOR 30 WK (STUDY DURATION: LIFESPAN), Tumor Site: Type of Lesion: FORESTOMACH: TUMOR, LUNG: COLON: TUMOR, ZYMBAL GLAND: TUMOR, Tumor Site: Type of Lesion: FORESTOMACH: TUMOR, LUNG: COLON: TUMOR, ZYMBAL GLAND: TUMOR) was “active; positive”.
